Experimental findings from US20160263214A1, “CALCIUM FLUORIDE COMPOSITIONS” (GLAXOSMITHKLINE BIOLOGICALS S.A., priority 2013, published 2016) are described below.

The data set in a line: Composite organic content by thermogravimetry. Conditions: for Weight losses (single cell, temperature range not attributable): pure organic reference, one cell only; for Weight losses Between 0 and 200° C. under N2 / Weight losses Between 200 et 600° C. under N2 / Weight losses Between 600 et 800° C. under Air: thermogravimetry, dry material. Type of data set: physicochemical. How it is done: Dry material sample were submitted to thermogravimetry. Weight losses from RT to 600° C. under N2 and from 600° C. to 800° C. under O2 were recorded and represent by difference the quantity of burned organic material.

In the case of `O=C(O)CCCCC(=O)O` [Adipic acid], the “Weight losses (single cell, temperature range not attributable)” value worked out at 100%.
For `O=c1[nH]cnc2nc[nH]c12` [Hypoxanthine], the “Weight losses Between 0 and 200° C. under N2” value turned out to be 0.2%; the “Weight losses Between 200 et 600° C. under N2” value amounted to 50.6%; the “Weight losses Between 600 et 800° C. under Air” value was found to be 49.2%.
Turning to `Cc1c[nH]c(=O)[nH]c1=O` [Thymine], the “Weight losses (single cell, temperature range not attributable)” value worked out at 100%.
As to `O=c1[nH]c(=O)c2[nH]c(=O)[nH]c2[nH]1` [Uric acid], the “Weight losses Between 0 and 200° C. under N2” value came out at 0.1%; the “Weight losses Between 200 et 600° C. under N2” value is 74.6%; the “Weight losses Between 600 et 800° C. under Air” value is 25.3%.
